Where a name gives a salt, the structure may show the parent alone.
target: T1, recombinant glucosyltransferase domain of C. difficile Toxin B/TcdB (Clostridioides difficile, UniProt P18177); experiment: biochemical
T1 construct: 6-His (C); purchased R&D Systems 6246-GT
T1 sequence (P18177 1-543): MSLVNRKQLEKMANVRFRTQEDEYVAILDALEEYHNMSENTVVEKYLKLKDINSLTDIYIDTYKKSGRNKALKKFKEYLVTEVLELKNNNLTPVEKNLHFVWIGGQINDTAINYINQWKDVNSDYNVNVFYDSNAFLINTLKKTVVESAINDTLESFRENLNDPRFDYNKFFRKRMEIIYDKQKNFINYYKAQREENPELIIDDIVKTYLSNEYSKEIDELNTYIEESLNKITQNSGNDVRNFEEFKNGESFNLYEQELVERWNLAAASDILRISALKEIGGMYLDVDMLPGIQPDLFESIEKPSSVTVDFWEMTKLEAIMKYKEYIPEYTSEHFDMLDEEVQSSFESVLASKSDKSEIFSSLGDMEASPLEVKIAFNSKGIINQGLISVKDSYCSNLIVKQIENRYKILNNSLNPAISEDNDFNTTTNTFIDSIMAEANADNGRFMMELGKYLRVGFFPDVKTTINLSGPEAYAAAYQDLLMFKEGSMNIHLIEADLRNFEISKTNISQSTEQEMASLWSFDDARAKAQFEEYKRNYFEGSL

Compound	IC50
NC(=O)c1ccc(CN2C(=O)c3ccc(Cl)cc3NC(=O)[C@H]2Cc2cccnc2)cc1 [Example 13c, (R)-4-((8-chloro-2,5-dioxo-3-(pyridin-3-ylmethyl)-2,3-dihydro-1H-benzo[e][1,4]diazepin-4(5H)-yl)methyl)benzamide]	1000 to 10000 nM
NC(=O)c1ccc(CN2C(=O)c3ccc(Cl)cc3NC(=O)[C@H]2Cc2ccccn2)cc1 [Example 13d]	100 to 999 nM
N#Cc1ccc2c(c1)NC(=O)[C@@H](Cc1cccnc1)N(Cc1ccc(C(=O)Nc3ccccn3)cc1)C2=O [Example 14a, (R)-4-((8-Cyano-2,5-dioxo-3-(pyridin-3-ylmethyl)-2,3-dihydro-1H-benzo[e][1,4]diazepin-4(5H)-yl)methyl)-N-(pyridin-2-yl)benzamide Hydrochloride]	< 100 nM
O=C(NS(=O)(=O)c1ccccc1)c1ccc(CN2C(=O)c3ccc(Cl)cc3NC(=O)[C@H]2Cc2cccnc2)cc1 [Example 15a, (R)-4-((8-Chloro-2,5-dioxo-3-(pyridin-3-ylmethyl)-2,3-dihydro-1H-benzo[e][1,4]diazepin-4(5H)-yl)methyl)-N-(phenylsulfonyl)benzamide]	1000 to 10000 nM
CS(=O)(=O)NC(=O)c1ccc(CN2C(=O)c3ccc(Cl)cc3NC(=O)[C@H]2Cc2cccnc2)cc1 [Example 15b, (R)-4-((8-chloro-2,5-dioxo-3-(pyridin-3-ylmethyl)-2,3-dihydro-1H-benzo[e][1,4]diazepin-4(5H)-yl)methyl)-N-(methylsulfonyl)benzamide]	1000 to 10000 nM
O=C(NS(=O)(=O)c1ccc(Cl)cc1)c1ccc(CN2C(=O)c3ccc(Cl)cc3NC(=O)[C@H]2Cc2cccnc2)cc1 [Example 15c, (R)-4-((8-chloro-2,5-dioxo-3-(pyridin-3-ylmethyl)-2,3-dihydro-1H-benzo[e][1,4]diazepin-4(5H)-yl)methyl)-N-((4-chlorophenyl)sulfonyl)benzamide]	1000 to 10000 nM
COc1ccc(S(=O)(=O)NC(=O)c2ccc(CN3C(=O)c4ccc(Cl)cc4NC(=O)[C@H]3Cc3cccnc3)cc2)cc1 [Example 15d, (R)-4-((8-chloro-2,5-dioxo-3-(pyridin-3-ylmethyl)-2,3-dihydro-1H-benzo[e][1,4]diazepin-4(5H)-yl)methyl)-N-((4-methoxyphenyl)sulfonyl)benzamide]	1000 to 10000 nM
Cc1ccc(S(=O)(=O)NC(=O)c2ccc(CN3C(=O)c4ccc(Cl)cc4NC(=O)[C@H]3Cc3cccnc3)cc2)cc1 [Example 15e, (R)-4-((8-chloro-2,5-dioxo-3-(pyridin-3-ylmethyl)-2,3-dihydro-1H-benzo[e][1,4]diazepin-4(5H)-yl)methyl)-N-tosylbenzamide]	1000 to 10000 nM
Cc1ccc(NC(=O)c2ccc(CN3C(=O)c4ccc(N)cc4NC(=O)[C@H]3C)cc2)nc1 [Example 16a, (R)-4-((8-Amino-3-methyl-2,5-dioxo-2,3-dihydro-1H-benzo[e][1,4]diazepin-4(5H)-yl)methyl)-N-(5-methylpyridin-2-yl)benzamide]	1000 to 10000 nM
CC(=O)Nc1ccc2c(c1)NC(=O)[C@@H](C)N(Cc1ccc(C(=O)Nc3ccc(C)cn3)cc1)C2=O [Example 17a, (R)-4-((8-Acetamido-3-methyl-2,5-dioxo-2,3-dihydro-1H-benzo[e][1,4]diazepin-4(5H)-yl)methyl)-N-(5-methylpyridin-2-yl)benzamide]	100 to 999 nM
COCCC(=O)Nc1ccc2c(c1)NC(=O)[C@@H](C)N(Cc1ccc(C(=O)Nc3ccc(C)cn3)cc1)C2=O [Example 18a, (R)-4-((8-(3-Methoxypropanamido)-3-methyl-2,5-dioxo-2,3-dihydro-1H-benzo[e][1,4]diazepin-4(5H)-yl)methyl)-N-(5-methylpyridin-2-yl)benzamide]	1000 to 10000 nM
Cc1ccc(NC(=O)c2ccc(CN3C(=O)c4ccc(NC(=O)C(C)C)cc4NC(=O)[C@H]3C)cc2)nc1 [Example 18b, (R)-4-((8-isobutyramido-3-methyl-2,5-dioxo-2,3-dihydro-1H-benzo[e][1,4]diazepin-4(5H)-yl)methyl)-N-(5-methylpyridin-2-yl)benzamide]	10000 to 35000 nM
Cc1ccc(NC(=O)c2ccc(CN3C(=O)c4ccc(NC(=O)c5cc(C)on5)cc4NC(=O)[C@H]3C)cc2)nc1 [Example 18c, (R)-5-methyl-N-(3-methyl-4-(4-((5-methylpyridin-2-yl)carbamoyl)benzyl)-2,5-dioxo-2,3,4,5-tetrahydro-1H-benzo[e][1,4]diazepin-8-yl)isoxazole-3-carboxamide]	1000 to 10000 nM
Cc1ccc(NC(=O)c2ccc(CN3C(=O)c4ccc(NC(=O)c5ccccn5)cc4NC(=O)[C@H]3C)cc2)nc1 [Example 18d, (R)-N-(3-methyl-4-(4-((5-methylpyridin-2-yl)carbamoyl)benzyl)-2,5-dioxo-2,3,4,5-tetrahydro-1H-benzo[e][1,4]diazepin-8-yl)picolinamide]	10000 to 35000 nM
Cc1ccc(NC(=O)c2ccc(CN3C(=O)c4ccc(NC(=O)c5cccnc5)cc4NC(=O)[C@H]3C)cc2)nc1 [Example 18e, (R)-N-(3-methyl-4-(4-((5-methylpyridin-2-yl)carbamoyl)benzyl)-2,5-dioxo-2,3,4,5-tetrahydro-1H-benzo[e][1,4]diazepin-8-yl)nicotinamide]	1000 to 10000 nM
Cc1ccc(NC(=O)c2ccc(S(=O)(=O)N3Cc4ccc(Cl)cc4NC(=O)[C@H]3Cc3ccccn3)cc2)nc1 [Example 19a, (R)-4-((8-Chloro-2-oxo-3-(pyridin-2-ylmethyl)-2,3-dihydro-1H-benzo[e][1,4]diazepin-4(5H)-yl)sulfonyl)-N-(5-methylpyridin-2-yl)benzamide]	100 to 999 nM
O=C(Nc1ccccn1)c1ccc(S(=O)(=O)N2Cc3ccc(Cl)cc3NC(=O)[C@H]2Cc2ccccn2)cc1 [Example 19b, (R)-4-((8-chloro-2-oxo-3-(pyridin-2-ylmethyl)-2,3-dihydro-1H-benzo[e][1,4]diazepin-4(5H)-yl)sulfonyl)-N-(pyridin-2-yl)benzamide]	< 100 nM
O=C(Nc1ccccn1)c1ccc(S(=O)(=O)N2Cc3ccc(Cl)cc3NC(=O)[C@@H]2Cc2ccccn2)cc1 [Example 19c, (S)-4-((8-chloro-2-oxo-3-(pyridin-2-ylmethyl)-2,3-dihydro-1H-benzo[e][1,4]diazepin-4(5H)-yl)sulfonyl)-N-(pyridin-2-yl)benzamide]	100 to 999 nM
COc1ccc(NC(=O)c2ccc(S(=O)(=O)N3Cc4ccc(Cl)cc4NC(=O)[C@@H]3Cc3ccccn3)cc2)nc1 [Example 19d, (S)-4-((8-chloro-2-oxo-3-(pyridin-2-ylmethyl)-2,3-dihydro-1H-benzo[e][1,4]diazepin-4(5H)-yl)sulfonyl)-N-(5-methoxypyridin-2-yl)benzamide]	100 to 999 nM
Cc1cnc(NC(=O)c2ccc(S(=O)(=O)N3Cc4ccc(Cl)cc4NC(=O)[C@@H]3Cc3ccccn3)cc2)nc1 [Example 19e, (S)-4-((8-chloro-2-oxo-3-(pyridin-2-ylmethyl)-2,3-dihydro-1H-benzo[e][1,4]diazepin-4(5H)-yl)sulfonyl)-N-(5-methylpyrimidin-2-yl)benzamide]	100 to 999 nM
COc1ccc(NC(=O)c2ccc(S(=O)(=O)N3Cc4ccc(Cl)cc4NC(=O)[C@H]3Cc3ccccn3)cc2)nc1 [Example 19f, (R)-4-((8-chloro-2-oxo-3-(pyridin-2-ylmethyl)-2,3-dihydro-1H-benzo[e][1,4]diazepin-4(5H)-yl)sulfonyl)-N-(5-methoxypyridin-2-yl)benzamide]	100 to 999 nM

Reference: patent US10669242B2 (priority 2016, dated 2020)
